# Experimental data as given in patent publication US20130059324A1, “SYSTEMS AND METHODS FOR MECHANICALLY STRAINED CELL CULTURE” (THE UNIVERSITY OF KANSAS, priority 2010, published 2013).
# How the values were obtained:
# A549 cells [1] = experiment: Prototype 96-well plate, viable cell count (Vi-Cell) with and without mechanical forces; conditions: drug at IC90, 24 hours
# Procedure: (§3) After allowing the cells to adhere to the flexible membrane of the 96 well plate for 24 hours, the loading pins and the system described in FIG. 7 to implement mechanical strain were used to deliver 20% maximum strain for 2 seconds to the plate assigned for mechanical forces (+M Group), followed by 2 seconds of rest (15 cycles per minute with an average strain of 10% per cycle) in keeping with a normal human respiration.
# (§4) In a parallel experiments, the cells were treated with anti-tumor drug after 72 hours of initial seeding (after 48 hours of mechanical stretching). The drug was dissolved in dimethyl sulfoxide (DMSO) at stock concentration and added to the respective media. […] The IC90 concentrations of the drugs were then added to prototype plate.
# (§5) The +M Group was subjected to continuous mechanical stretching while the −M Group plate was placed in the same incubator for additional 24 hours.
# (§6) In order to quantify viability, 6 wells per treatment group for ViCell counter and 6 wells per condition for MTS were assigned to determine the cell viability. Using Vi-Cell counter, assigned wells were filled with extra 210 μl of media to keep the volume constant in all the wells. Media from the assigned wells were transferred into a 24-well plate, and the well location was recorded. About 50 μl of trypLE was added to each well and allowed to trypsinize for a maximum of ten minutes. A small amount of media from the 24-well plate was transferred back into corresponding wells of the prototype plate to collect detached cells.
# (§7) Media and cells were transferred back into the corresponding well of the 24-well plate. All wells were brought to a final volume of 1.25 mL with PBS and mixed well. About 1 ml of this cell suspension was transferred to ViCell counter to determine the number of viable cells.
# A549 cells [2] = system: A549 cells
# Procedure: as §3, §4, §5, §6, §7
# NCI-H358 cells = experiment: Drug exposure with or without simulated forces, 6-well Bioflex plates, live cell count and exponential growth model; assay type: cell-based, human
# Text: (§1) Treatments 1, 2 and 3 served as unstretched controls for Treatments 4, 5 and 6, respectively. For each cell line and drug, all treatments were independently repeated at least 3 times on different days, with 3 replicates per Treatments 1 and 4 (n=9) and 5 replicates per all other treatments (n=15).
# The NCI-H358 (ATCC® CRL-5807) and A549 (ATCC® CCL-185) cell lines were obtained from American Type Culture Collection (ATCC, Manassas, Va.) and cultured in RPMI-1640 (NCI-H358) and HAM's F12K (A549) media containing 10% Fetal Bovine Serum (Sigma Aldrich, St. Louis, Mo.) and 1% Penicillin Streptomycin (Sigma Aldrich). Cells were passaged in 75 cm2 culture flasks at 37° C. in 5% CO2, and trypsinized using TryplE™ Express (Gibco) containing phenol red.
# Cells were plated in 6-well Bioflex® plates (Flexcell® International Corporation, Hillsborough, N.C.). Each well of the plate has a flexible elastic membrane coated with a thin layer of type I collagen. Type I collagen was chosen since it more accurately represents the physiology of lung tumor cells in vivo. The Flexcell is not configured for drug studies as described herein, and had to be modified as described herein. […] Therefore, to have the same number of cells in culture at the time of drug exposure, initial seeding densities for treatments not involving simulated forces (Treatments 1-3) and those involving forces (Treatments 4-6) were adjusted for each cell line. In Treatments 1, 2 and 3, NCI-H358 and A549 cells were plated at a density of 100,000 and 20,000 cells/well in 2 ml of corresponding media, respectively. For treatments involving simulated forces (Treatments 4-6), NCI-H358 and A549 cells were plated at a density of 170,000 and 35,000 cells/well, respectively.
# After allowing the cells to adhere to the membrane for 24 hours, the plates assigned for simulated forces were stretched using the FX-4000 Tension plus unit (Flexcell® International Corporation, Hillsborough, N.C.). The Flexcell unit was configured to deliver an alternating positive and negative pressure beneath the cell culture surfaces. Negative pressure pulls the culture surface down over a stationary Delrin post on the baseplate, delivering a uniform biaxial strain to the cells, and subsequent application of positive pressure releases this distension (FIGS. 9A and 9B.) In this manner, the alternating positive and negative pressure simulates forces experienced during respiration. Culture plates experiencing forces were fitted with rubber gaskets and placed on circular loading stations in the baseplate. […] Cells were preconditioned with mechanical forces for 48 hours, in an incubator at 37° C., 5% CO2 and 95% relative humidity.
# After 72 hours of initial seeding, one of the five drugs was added to Treatments 3 and 6 of each cell line. […] The IC90, concentration of the drug that inhibits the growth of 90% of the cells in a static monolayer culture, was used to assure a significant inhibition in the absence of simulated forces. To insure comparability, an aliquot of 1 ml of media without the drug was added to each well in Treatments 2 and 5. After adding the drug or 1 ml of media, the plates from Treatments 5 and 6 were placed back on the baseplate and subjected to the same force profile as before for the remaining 72 hours. Plates from Treatments 2 and 3 (without forces) were placed in the same incubator for the remaining 72 hours.
# (§2) Cells were trypsinized and counted at the end of day 3 in Treatments 1 and 4, and at the end of day 6 in the other treatments, using a Beckman Coulter Vi-Cell Analyzer (Beckman Coulter, Fullerton, Calif.). To examine changes in morphology, microphotographs of A549 and NCI-H358 cells were taken at the end of Treatments 1, 2, 4 and 5 using an Olympus inverted microscope and a 10× objective.
# The standard exponential cell growth model (28) was used to describe the changes in live cell counts after each treatment. […]
# A549 cells [3] = experiment: as above; assay type: cell-based, human
# Procedure: as §1
# Cells were passaged in 75 cm2 culture flasks at 37° C. in 5% CO2, and trypsinized using TryplE™ Express (Gibco) containing phenol red.
# Cells were plated in 6-well Bioflex® plates (Flexcell® International Corporation, Hillsborough, N.C.). Each well of the plate has a flexible elastic membrane coated with a thin layer of type I collagen. Type I collagen was chosen since it more accurately represents the physiology of lung tumor cells in vivo. […] In Treatments 1, 2 and 3, NCI-H358 and A549 cells were plated at a density of 100,000 and 20,000 cells/well in 2 ml of corresponding media, respectively. For treatments involving simulated forces (Treatments 4-6), NCI-H358 and A549 cells were plated at a density of 170,000 and 35,000 cells/well, respectively.
# After allowing the cells to adhere to the membrane for 24 hours, the plates assigned for simulated forces were stretched using the FX-4000 Tension plus unit (Flexcell® International Corporation, Hillsborough, N.C.). The Flexcell unit was configured to deliver an alternating positive and negative pressure beneath the cell culture surfaces. Negative pressure pulls the culture surface down over a stationary Delrin post on the baseplate, delivering a uniform biaxial strain to the cells, and subsequent application of positive pressure releases this distension (FIGS. 9A and 9B.) In this manner, the alternating positive and negative pressure simulates forces experienced during respiration. Culture plates experiencing forces were fitted with rubber gaskets and placed on circular loading stations in the baseplate.
# After 72 hours of initial seeding, one of the five drugs was added to Treatments 3 and 6 of each cell line. […] To insure comparability, an aliquot of 1 ml of media without the drug was added to each well in Treatments 2 and 5. After adding the drug or 1 ml of media, the plates from Treatments 5 and 6 were placed back on the baseplate and subjected to the same force profile as before for the remaining 72 hours. Plates from Treatments 2 and 3 (without forces) were placed in the same incubator for the remaining 72 hours.
# as §2
# The standard exponential cell growth model (28) was used to describe the changes in live cell counts after each treatment. According to this model, the cell count (e.g., N) at a particular time (e.g., t), is given by the equation:
# N* is the initial cell count and λ is the cell growth rate. For each cell line, the following cell growth rates were estimated: λ=growth rate in the absence of forces and drugs, λd=growth rate in the presence of a particular drug but no forces, λXf=growth rate in the presence of forces but no drugs; and λfd=growth rate in the presence of forces and a particular drug. The growth rates λd and λfd were estimated for each tested drug. Using these growth rates and the exponential growth model, the final cell counts were mathematically modeled for each treatment under various conditions (FIG. 8). For each cell line, a linear regression model that combined the information from the 5 investigated drugs was built using Stata Statistical Software (StataCorp LP, Texas) after log-transforming the six equations listed in FIG. 8. The regression coefficients in the model were the growth rates.
# [4] = drug at IC90 for 3 days, 20% maximum strain, 15 cycles/minute
# [5] = percentage reduction in live cell counts, 3-day drug exposure at IC90, no forces
# [6] = percentage reduction in live cell counts, 3-day drug exposure at IC90, simulated forces
smiles,measurement,setting,value
CC(=O)O[C@H]1C(=O)[C@@]2(C)[C@H]([C@H](OC(=O)c3ccccc3)[C@]3(O)C[C@H](OC(=O)[C@H](O)[C@@H](NC(=O)c4ccccc4)c4ccccc4)C(C)=C1C3(C)C)[C@]1(OC(C)=O)CO[C@@H]1C[C@@H]2O [Paclitaxel],"Viable Cell Count after 24 hours of drug exposure, With forces (Ef)",A549 cells [1]; mechanical forces,11875.0
same,"Viable Cell Count after 24 hours of drug exposure, Without forces (E)",A549 cells [1]; no forces,33125.0
same,Effect of mechanical forces on viable cell count / cytotoxicity,A549 cells [2],Statistically significant reduction
same,"Growth Rates, With forces",NCI-H358 cells; [4],−0.276 per day
same,"Growth Rates, Without forces","NCI-H358 cells; drug at IC90 for 3 days, no forces",−0.005 per day
same,"Effectiveness of The Drug, Without forces (E)",NCI-H358 cells; [5],70.5%
same,"Effectiveness of The Drug, With forces (Ef)",NCI-H358 cells; [6],66.8%
same,"Growth Rates, With forces",A549 cells [3]; [4],−0.038 per day
same,"Growth Rates, Without forces","A549 cells [3]; drug at IC90 for 3 days, no forces, negative = reduction in viable cell count",0.133 per day
same,"Effectiveness of The Drug, Without forces (E)",A549 cells [3]; [5],76.9%
same,"Effectiveness of The Drug, With forces (Ef)",A549 cells [3]; [6],57.5%
